From ChEMBL document CHEMBL1201862, “PubChem BioAssay data set” (2004)
Active and inactive are the calls of the source.

Experiments:
[1] = target: T1, Apoptotic protease-activating factor 1 (Homo sapiens, UniProt O14727); test: SAR analysis of small molecule Activators of Apaf-1 in a Fluorescent assay.; format: functional; conditions: read-out: EC50_Mean;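 note: caspase-3 cleavage of fluorogenic Rh110 DEVD substrate downstream of apoptosome activation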
T1 sequence (O14727 whole entry): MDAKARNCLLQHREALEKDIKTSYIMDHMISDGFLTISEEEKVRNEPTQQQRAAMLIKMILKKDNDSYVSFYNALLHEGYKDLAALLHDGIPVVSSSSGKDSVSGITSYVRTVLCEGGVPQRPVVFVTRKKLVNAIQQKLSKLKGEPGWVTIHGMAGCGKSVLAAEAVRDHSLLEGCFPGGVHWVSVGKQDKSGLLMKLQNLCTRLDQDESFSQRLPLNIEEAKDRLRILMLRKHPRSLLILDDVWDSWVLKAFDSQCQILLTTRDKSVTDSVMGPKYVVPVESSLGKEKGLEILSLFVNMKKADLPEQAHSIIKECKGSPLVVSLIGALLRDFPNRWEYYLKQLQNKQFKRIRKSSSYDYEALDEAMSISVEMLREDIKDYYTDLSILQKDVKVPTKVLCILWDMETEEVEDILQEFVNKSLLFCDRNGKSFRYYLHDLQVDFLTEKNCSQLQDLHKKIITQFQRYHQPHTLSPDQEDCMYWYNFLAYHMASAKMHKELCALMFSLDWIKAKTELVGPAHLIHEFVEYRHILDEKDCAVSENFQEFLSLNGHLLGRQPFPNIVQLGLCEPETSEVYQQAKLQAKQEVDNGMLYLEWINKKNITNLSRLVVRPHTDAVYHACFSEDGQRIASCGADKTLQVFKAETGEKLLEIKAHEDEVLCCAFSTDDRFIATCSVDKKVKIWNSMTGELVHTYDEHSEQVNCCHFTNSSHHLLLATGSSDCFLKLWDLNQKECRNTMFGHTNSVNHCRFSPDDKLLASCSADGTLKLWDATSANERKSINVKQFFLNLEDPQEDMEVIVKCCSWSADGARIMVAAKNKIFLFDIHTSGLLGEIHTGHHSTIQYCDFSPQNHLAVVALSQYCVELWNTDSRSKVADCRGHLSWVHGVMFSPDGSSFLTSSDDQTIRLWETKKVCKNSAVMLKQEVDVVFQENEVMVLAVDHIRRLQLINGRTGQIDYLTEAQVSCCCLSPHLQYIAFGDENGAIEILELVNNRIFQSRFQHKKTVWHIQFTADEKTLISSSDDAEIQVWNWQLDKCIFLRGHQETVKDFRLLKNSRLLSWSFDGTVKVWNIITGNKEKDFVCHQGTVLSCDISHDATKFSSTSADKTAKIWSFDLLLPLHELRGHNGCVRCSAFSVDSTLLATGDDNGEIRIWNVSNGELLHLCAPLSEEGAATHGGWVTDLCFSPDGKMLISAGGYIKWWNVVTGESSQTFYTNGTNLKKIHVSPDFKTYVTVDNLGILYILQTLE

[2] = target: Protein Wnt-3a (Mus musculus, UniProt P27467); test: Wnt3a-driven reporter signaling inhibition, dose response, selectivity assay for Gli-SUFU antagonist project, Wnt-LIGHT cells, luminescence (AID 651570); format: functional; conditions: read-out: IC50_Mean;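 note: Wnt-LIGHT reporter cells stimulated with conditioned medium from Wnt3a-producing cells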
[3] = inhibitors of intracellular T. cruzi replication, confirmation, NIH3T3 host cells, beta-gal luminescence (AID 2044); format: functional, cell-based;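 note: intracellular parasites grown in NIH/3T3 mouse fibroblasts as host cells; luminescent beta-galactosidase reporter signal from transgenic T. cruzi replicating inside host cells; inhibitors lower the luminescence signal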
[4] = cytotoxicity toward NIH3T3 fibroblasts, dose response, counter-screen, cell-based, ATP luminescence, mouse fibroblasts (AID 2010); format: functional;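 note: cells exposed to compound for about 90 hours before reading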
[5] = target: T2, Interleukin-8 (Homo sapiens, UniProt P10145); test: Dose Response confirmation of uHTS small molecule hits for cystic fibrosis induced NFkb Inhibitors in a PAF-induced IL8 counterscreen.; format: functional; conditions: read-out: IC50_Mean
T2 sequence (P10145 whole entry): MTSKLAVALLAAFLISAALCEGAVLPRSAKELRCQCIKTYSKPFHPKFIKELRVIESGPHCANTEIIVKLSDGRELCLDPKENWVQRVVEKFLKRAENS

[6] = target: T3, Corticotropin-releasing factor receptor 2/Corticotropin-releasing factor-binding protein (Homo sapiens, UniProt P24387+Q13324); test: Dose Response confirmation of uHTS hits for small molecule antagonists of the CRF-binding protein and CRF-R2 receptor complex.; format: functional; conditions: read-out: IC50_Mean
T3 sequence (Q13324 whole entry): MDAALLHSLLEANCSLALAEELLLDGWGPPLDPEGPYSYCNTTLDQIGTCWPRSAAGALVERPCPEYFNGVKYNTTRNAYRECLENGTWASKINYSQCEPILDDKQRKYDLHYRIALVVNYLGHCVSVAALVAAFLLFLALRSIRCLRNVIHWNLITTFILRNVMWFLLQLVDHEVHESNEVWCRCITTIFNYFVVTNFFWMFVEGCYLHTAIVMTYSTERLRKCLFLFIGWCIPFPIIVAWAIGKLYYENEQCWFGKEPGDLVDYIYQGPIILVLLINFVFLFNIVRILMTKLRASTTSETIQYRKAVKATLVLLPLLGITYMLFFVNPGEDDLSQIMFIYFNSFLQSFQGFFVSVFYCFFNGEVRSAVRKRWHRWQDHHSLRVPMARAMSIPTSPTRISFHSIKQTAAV
T3 sequence (P24387 whole entry): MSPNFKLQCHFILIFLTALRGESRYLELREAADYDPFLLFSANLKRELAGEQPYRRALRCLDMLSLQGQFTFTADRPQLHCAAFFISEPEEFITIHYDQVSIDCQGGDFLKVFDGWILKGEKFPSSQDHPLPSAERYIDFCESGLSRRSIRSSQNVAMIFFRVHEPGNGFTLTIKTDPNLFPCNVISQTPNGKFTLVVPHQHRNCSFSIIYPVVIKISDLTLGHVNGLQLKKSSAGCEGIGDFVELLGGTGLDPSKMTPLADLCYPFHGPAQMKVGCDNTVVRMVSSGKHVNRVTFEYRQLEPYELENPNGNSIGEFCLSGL

[7] = target: T3, Corticotropin-releasing factor receptor 2/Corticotropin-releasing factor-binding protein; test: activators of CRF receptor 2 with binding protein – uHTS hits, confirmation (AID 602473); format: functional; conditions: read-out: EC50_Mean
[8] = CRF-BP/CRF-R2 complex antagonists, dose response, cell-based, uHTS hits, 384-well (AID 651639); format: functional, Homo sapiens; conditions: read-out: IC50_Mean
[9] = ARNT/TACC3 interaction disruptors, potency, confirmation, biochemical, AlphaScreen, cherry-picked samples (AID 651703); format: functional, Homo sapiens;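 note: His-tagged ARNT PAS-B domain paired with GST-TACC3 E629A dimer coactivator fragment; potency of inhibitors that break up the complex and lower AlphaScreen signal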
[10] = target: Potassium voltage-gated channel subfamily KQT member 2 (Rattus norvegicus, UniProt O88943); test: KCNQ2 potassium channel inhibitors, dose response, cell-based, automated electrophysiology, set II, rat KCNQ2 (AID 588637); format: functional
[11] = target: T4, Aminopeptidase N (Plasmodium falciparum FcB1/Columbia, UniProt O96935); test: P. falciparum M1AAP inhibitors, biochemical, fluorogenic H-Leu-NHMec substrate, 1536-well (AID 1445); parameters: species or system Plasmodium falciparum 3D7, 3D7
T4 sequence (O96935 whole entry): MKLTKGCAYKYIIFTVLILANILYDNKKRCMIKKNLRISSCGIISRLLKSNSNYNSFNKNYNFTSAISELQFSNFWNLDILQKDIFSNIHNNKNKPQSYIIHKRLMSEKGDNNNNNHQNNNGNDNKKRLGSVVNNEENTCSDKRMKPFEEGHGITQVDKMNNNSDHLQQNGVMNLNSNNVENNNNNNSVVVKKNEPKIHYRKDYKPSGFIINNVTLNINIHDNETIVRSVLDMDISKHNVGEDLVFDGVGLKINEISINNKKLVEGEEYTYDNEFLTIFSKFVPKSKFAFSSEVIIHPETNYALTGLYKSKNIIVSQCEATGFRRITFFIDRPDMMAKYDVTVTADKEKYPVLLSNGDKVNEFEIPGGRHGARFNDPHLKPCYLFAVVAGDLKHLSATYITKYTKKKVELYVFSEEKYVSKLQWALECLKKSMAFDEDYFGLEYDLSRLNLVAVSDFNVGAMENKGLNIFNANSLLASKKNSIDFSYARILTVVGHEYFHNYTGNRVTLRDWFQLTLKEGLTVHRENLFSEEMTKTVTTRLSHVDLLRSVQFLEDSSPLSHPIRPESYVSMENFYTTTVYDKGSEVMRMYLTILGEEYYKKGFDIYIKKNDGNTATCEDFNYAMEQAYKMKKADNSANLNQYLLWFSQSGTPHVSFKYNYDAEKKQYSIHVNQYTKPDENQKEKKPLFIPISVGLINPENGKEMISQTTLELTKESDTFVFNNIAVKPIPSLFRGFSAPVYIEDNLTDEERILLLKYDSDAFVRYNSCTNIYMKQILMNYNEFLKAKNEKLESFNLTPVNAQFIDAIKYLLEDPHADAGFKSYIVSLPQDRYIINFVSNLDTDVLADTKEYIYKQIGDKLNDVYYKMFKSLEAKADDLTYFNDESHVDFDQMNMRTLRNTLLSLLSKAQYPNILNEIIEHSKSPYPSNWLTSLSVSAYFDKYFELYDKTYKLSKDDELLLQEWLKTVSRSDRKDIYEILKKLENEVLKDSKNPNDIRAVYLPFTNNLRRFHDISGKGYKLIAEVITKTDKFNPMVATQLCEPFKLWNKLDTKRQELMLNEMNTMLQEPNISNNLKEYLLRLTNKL

[12] = target: T5, High affinity choline transporter 1 (Homo sapiens, UniProt Q9GZV3); test: CHT inhibitors, dose response, cell-based, 10-point CRC, membrane potential dye (AID 588401); format: functional;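 note: membrane potential dye fluorescence of choline-evoked depolarization via CHT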
T5 sequence (Q9GZV3 whole entry): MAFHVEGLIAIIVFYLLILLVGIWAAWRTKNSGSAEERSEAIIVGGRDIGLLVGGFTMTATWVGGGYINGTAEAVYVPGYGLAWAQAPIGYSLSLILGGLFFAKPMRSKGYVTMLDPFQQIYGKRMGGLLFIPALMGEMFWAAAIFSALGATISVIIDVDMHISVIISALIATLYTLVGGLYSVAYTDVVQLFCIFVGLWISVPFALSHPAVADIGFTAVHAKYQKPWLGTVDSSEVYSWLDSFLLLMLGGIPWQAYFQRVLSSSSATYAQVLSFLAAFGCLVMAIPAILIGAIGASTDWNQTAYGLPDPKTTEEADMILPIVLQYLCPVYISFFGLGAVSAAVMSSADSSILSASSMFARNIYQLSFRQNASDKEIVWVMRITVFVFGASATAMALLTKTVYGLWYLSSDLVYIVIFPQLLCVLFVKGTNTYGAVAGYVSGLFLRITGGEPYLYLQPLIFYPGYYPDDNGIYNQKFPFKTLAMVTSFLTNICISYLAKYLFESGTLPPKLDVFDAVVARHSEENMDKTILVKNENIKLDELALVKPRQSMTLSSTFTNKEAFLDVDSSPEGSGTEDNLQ

[13] = target: T5, High affinity choline transporter 1; test: CHT inhibitors, dose response, cell-based, 5-point CRC, membrane potential dye (AID 504840); format: functional
[14] = HEK293T cell cytotoxicity, dose response, cytotoxicity control for HIV Vif inhibitor project, cherry-picks (AID 652208); format: functional, cell-based
[15] = target: T6, Tyrosine-protein phosphatase non-receptor type 22 (Homo sapiens, UniProt Q9Y2R2); test: LYP phosphatase inhibition for selectivity, dose response, selectivity assay for LMPTP inhibitor project, biochemical, fluorescence, LYP catalytic domain (AID 652006); format: functional; conditions: read-out: IC50_Mean
T6 sequence (Q9Y2R2 whole entry): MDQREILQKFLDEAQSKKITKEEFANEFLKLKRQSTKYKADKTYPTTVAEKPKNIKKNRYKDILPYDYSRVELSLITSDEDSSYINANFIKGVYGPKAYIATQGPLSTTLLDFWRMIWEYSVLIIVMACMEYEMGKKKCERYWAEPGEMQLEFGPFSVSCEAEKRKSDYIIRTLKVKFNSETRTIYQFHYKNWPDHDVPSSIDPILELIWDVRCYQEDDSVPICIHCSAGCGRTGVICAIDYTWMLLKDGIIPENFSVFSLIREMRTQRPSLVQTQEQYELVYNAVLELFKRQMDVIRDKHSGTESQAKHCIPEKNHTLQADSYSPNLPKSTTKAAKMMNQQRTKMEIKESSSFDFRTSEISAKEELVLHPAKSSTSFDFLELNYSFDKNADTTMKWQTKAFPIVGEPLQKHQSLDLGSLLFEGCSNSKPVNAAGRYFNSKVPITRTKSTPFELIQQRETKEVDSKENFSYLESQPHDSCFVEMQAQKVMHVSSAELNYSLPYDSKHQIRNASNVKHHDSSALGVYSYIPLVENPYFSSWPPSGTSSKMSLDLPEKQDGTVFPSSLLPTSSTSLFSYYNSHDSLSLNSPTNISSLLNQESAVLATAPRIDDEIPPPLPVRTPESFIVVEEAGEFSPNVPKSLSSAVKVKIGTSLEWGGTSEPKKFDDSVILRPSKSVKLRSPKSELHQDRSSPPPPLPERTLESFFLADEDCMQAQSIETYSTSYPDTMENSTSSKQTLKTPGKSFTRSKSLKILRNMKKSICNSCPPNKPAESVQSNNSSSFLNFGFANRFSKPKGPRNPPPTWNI

[16] = target: Low molecular weight phosphotyrosine protein phosphatase (Homo sapiens, UniProt P24666); format: functional; conditions: read-out: IC50_Mean;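 note: Dose-response confirmation assay measuring inhibition of LMPTP enzyme activity by fluorescence intensity read-out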
Low molecular weight phosphotyrosine protein phosphatase, sequence (P24666 whole entry): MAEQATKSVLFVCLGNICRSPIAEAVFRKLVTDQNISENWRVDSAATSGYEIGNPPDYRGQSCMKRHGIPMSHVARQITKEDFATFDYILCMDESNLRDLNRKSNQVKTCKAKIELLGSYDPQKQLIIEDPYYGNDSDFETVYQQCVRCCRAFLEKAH

Potassium voltage-gated channel subfamily KQT member 2, sequence (O88943 whole entry): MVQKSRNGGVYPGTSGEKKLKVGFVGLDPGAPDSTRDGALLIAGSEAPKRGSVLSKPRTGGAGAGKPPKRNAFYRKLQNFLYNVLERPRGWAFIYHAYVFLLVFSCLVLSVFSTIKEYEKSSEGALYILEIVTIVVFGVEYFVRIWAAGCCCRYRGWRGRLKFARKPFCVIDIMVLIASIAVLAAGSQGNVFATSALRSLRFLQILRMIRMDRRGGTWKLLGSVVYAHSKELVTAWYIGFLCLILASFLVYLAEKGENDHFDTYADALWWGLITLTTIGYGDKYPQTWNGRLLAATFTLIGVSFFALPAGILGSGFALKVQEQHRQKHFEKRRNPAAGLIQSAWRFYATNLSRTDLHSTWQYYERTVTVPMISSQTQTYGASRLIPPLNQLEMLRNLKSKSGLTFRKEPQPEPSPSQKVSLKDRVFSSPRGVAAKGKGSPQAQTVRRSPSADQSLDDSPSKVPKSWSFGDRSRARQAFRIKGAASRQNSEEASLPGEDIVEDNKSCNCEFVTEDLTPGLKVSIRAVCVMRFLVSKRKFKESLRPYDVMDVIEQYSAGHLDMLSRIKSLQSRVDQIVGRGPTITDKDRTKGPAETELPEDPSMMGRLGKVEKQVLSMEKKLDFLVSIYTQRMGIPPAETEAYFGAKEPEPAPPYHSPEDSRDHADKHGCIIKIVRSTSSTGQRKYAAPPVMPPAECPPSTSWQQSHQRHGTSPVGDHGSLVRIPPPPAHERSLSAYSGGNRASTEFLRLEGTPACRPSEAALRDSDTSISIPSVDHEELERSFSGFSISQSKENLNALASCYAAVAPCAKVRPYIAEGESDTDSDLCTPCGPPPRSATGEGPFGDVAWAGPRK
Protein Wnt-3a, sequence (P27467 whole entry): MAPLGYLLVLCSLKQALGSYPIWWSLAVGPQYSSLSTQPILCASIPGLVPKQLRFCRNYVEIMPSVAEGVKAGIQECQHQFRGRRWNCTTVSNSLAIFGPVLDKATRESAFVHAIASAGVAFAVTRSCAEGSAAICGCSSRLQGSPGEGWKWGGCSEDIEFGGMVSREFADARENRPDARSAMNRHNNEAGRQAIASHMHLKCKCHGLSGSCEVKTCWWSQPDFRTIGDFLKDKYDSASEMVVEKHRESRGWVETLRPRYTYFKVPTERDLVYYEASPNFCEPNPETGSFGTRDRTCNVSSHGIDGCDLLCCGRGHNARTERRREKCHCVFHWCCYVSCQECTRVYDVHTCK

## CCOc1ccccc1NC(=O)CCS(=O)(=O)c1cc2c(cc1Cl)NC(=O)CO2
[1]
  EC50: > 100 µM (inactive)

## c1ccc(-c2c[n+](-c3ccccc3)c3n2CCS3)cc1
[2]
  IC50: 3.05 µM (active)
[3]
  EC50: 2.27 µM (active)
[4]
  EC50: > 60 µM (inconclusive)

## CC(C)C[C@@H](CN1CCCC1CN1C(=S)NC[C@@H]1Cc1ccc(O)cc1)N1C[C@H](Cc2ccc(O)cc2)N(CCc2ccccc2)C1=S (stereo partly specified)
[5]
  IC50: 9.82 µM (active)

## CC(C)N(C(=O)[C@H]1C[C@H](CC(=O)NCCC2=CCCCC2)C(=O)N2CCc3c([nH]c4ccc(Cl)cc34)[C@]12C)C(C)C
[6]
  IC50: 3.6 µM (active)
[7]
  EC50: > 53 µM (inactive)
[8]
  IC50: 4.28 µM (active)

## COc1cccc(/C=N/NC(=O)CNC(=O)c2cccnc2)c1O
[9]
  AC50: 81.1 µM (active)

## COc1ccccc1N1CCN(C(=O)C(Cc2ccccc2)NC(=O)C2CCCCC2)CC1 (stereo unspecified)
[10]
  IC50: 5.72 µM (active)

## Cc1cccc(C)c1-n1cccc1/C=C1/C(=N)N2C(=NC1=O)SN=C2S(C)(=O)=O
[11]
  IC50: 34.4 µM (active)
[12]
  IC50: 4.47 µM (active)
[13]
  IC50: 8.3 µM (active)

## Cc1cc(N2CCN(S(=O)(=O)c3ccc(Cl)c(Cl)c3)CC2)c2ccccc2n1
[14]
  AC50: 50.5 µM (active)
[15]
  IC50: 35.8 µM (inactive)
[16]
  IC50: 19.5 µM (active)
